Measurements: publication PMC10740580, “Benzothiazole-Phthalimide Hybrids as Anti-Breast Cancer and Antimicrobial Agents” (Antibiotics, 2023)

Columns and labels:
BALB/3T3 cells = assay: ROS protection assay (DCFH-DA, H2O2-induced); type: cell-based, mouse; conditions: 160 μM, BALB/3T3, DCFH-DA
Method: Cells were treated for 24 h, and N-acetylcystein (NAC), a compound well-known for its antioxidant capacity, was used as a reference molecule. […] Compound 3h was able to reduce ROS formation by 61.4 ± 2% at the maximum concentration of 160 μM in the BALB/3T3 cells, as shown by the quantification of fluorescence intensity, proving compound 3h to be a good ROS scavenger.
ROS production was detected using the oxidation-sensitive fluorescent probe 2′,7′-dichlorodihydrofluorescein diacetate (DCFH-DA, D6665; Sigma-Aldrich, St. Louis, MO, USA) by modifying the method described by Wang and James. A black 96-well cell culture plate (Costar, Sigma Aldrich, St. Louis, MO, USA) was used to seed viable cells. After 24 h, the cells were treated with different concentrations of compound 3h (0.1–160 µM) for 1 h at 37 °C in 5% CO2. At the end of the treatment, cells were incubated with 2′,7′-dichlorofluorescein diacetate (DCFH-DA) for 30′, used at a concentration of 25 µM, in 5% CO2. […] The formation of fluorescent dichlorofluorescein (DCF), due to the oxidation of DCFH in the presence of ROS, was read at 530 nm using a microplate reader, the Tecan Infinite M1000 Pro (Tecan, Cernusco S.N., Italy), and DMSO medium was used for control cells. The data were analyzed for statistical significance (p < 0.0001) using a one-way ANOVA, followed by Dunnett’s test performed by GraphPad Prism 9. […]

MDA-MB-231 cells [1] = assay: Wound-healing assay (cell migration); type: cell-based, human; conditions: 3h at its IC50 value
Method: Thus, its ability to prevent the migration of MDA-MB-231 was tested by means of the wound-healing assay. Confluent monolayers of cells were cultivated and plated before being scraped to create a wound (see Experimental Section) and treated with compound 3h at concentrations corresponding to its IC50 value (Table 2) for 24 and 48 h, or DMSO (Ctrl). These distinct endpoint times were experimentally defined since MDA-MB-231 cells have a high growth rate and frequently give rise to metastases in vivo. In fact, 48 h were sufficient for the wound closure in the control cells, treated using only the vehicle.
Confluent monolayers of MDA-MB-231 cells formed after the cells were plated on twelve-well plates and grown in full media. […] A cell imager microscope (JuLi Smart fluorescence, NanoEnTek Inc., Seoul, Republic of Korea) was used to take the pictures. The percentage of wound closure used to express the cell migration toward the wounds was: wound closure%=[(At0−At∆h)÷[…]]×100% for which At0 is the area of wound measured immediately after scratching and At∆h is the area of wound measured 48 h after scratching. […] The collected images were analyzed with the JuLI^TM smart fluorescent cell viewer (NanoEnTek Inc., Seoul, Republic of Korea).
Figure 3 Wound-healing assay conducted on MDA-MB-231 cells treated with compound 3h or vehicle (Ctrl, DMSO). […] (B): quantitative analysis of wound closure. […]

MDA-MB-231 cells [2] = assay: TUNEL assay (DNA damage); type: cell-based, human; conditions: 50 μM, 24 h
Method: To further assess the effect of 3h treatment in MDA-MB-231, the terminal deoxynucleotidyl transferase dUTP nick-end labeling (TUNEL) assay was used. Thus, 3h or Thalidomide, as reference drug, were administered to the cells, for 24 h, at 25 and 50 μM concentrations, respectively, or with only the vehicle (DMSO), as negative control and then processed as outlined in the experimental section. […] Nuclei were counterstained with blue DAPI (Figure 2, panels A), and merge channels were also shown (Figure 2, panels C), where it is evident the perfect superposition of green and blue signals. […] Images taken from bright fields were also included (Figure 2, panels D).
DNA damage and cell death were analyzed by means of the TUNEL assay as indicated by the manufacturer’s protocols (CF™488A TUNEL Assay Apoptosis Detection Kit, Biotium, Hayward, CA, USA), with few changes, as in [42]. DAPI staining (0.2 μg/mL, Sigma Aldrich, Milan, Italy) was adopted for cell nuclei. Observations were made at 20× magnification using a fluorescence microscope (Leica DM 6000, Leica Microsystem Srl, Buccinasco, Italy). LAS-X software (Version: 3.5.7.23225; Leica Microsystem Srl, Buccinasco, Italy) was employed for the acquisition and processing of the images. Images are representative of two separate experiments from which different fields were acquired.
Figure 2 TUNEL assay. […]

O=C1c2ccccc2C(=O)N1c1nc2ccc(Oc3ccccc3)cc2s1 [3h, 2-[6-Phenoxy-1,3-benzothiazol-2-yl]-1H-isoindole-1,3(2H)-dione]
reduction of ROS formation (BALB/3T3 cells): 61.4 ± 2%
prevention of total wound closure, 24 h (MDA-MB-231 cells [1]; 24 h): ~ 23%
prevention of total wound closure, 48 h (MDA-MB-231 cells [1]; 48 h): ~ 26%
DNA damage (TUNEL, green nuclear fluorescence) (MDA-MB-231 cells [2]): promoted DNA damage
